From US20200017495A1, “NOVEL HETEROCYCLIC COMPOUNDS AND THEIR USE IN PREVENTING OR TREATING BACTERIAL INFECTIONS” (priority 2017, published 2020)
Values joined by “and” are separate entries in the source; they are usually repeats but may differ in a detail not shown here. Equal entries are not always repeated. Where two headings read alike, the source gives them in different places.

How the values were obtained:
Type in all cases: cell-based
[1] = test system: Citrobacter murliniae (CMU) isolates; test: MIC of compounds alone and combined with antibacterials, broth microdilution (CLSI)
In short: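 CLSI broth microdilution: log-phase isolates at 5.10^5 CFU/mL in cation-adjusted Mueller-Hinton broth were exposed to compound alone or in combination with an antibacterial, 16-20 h at 35° C in ambient air. MIC is the lowest concentration preventing visible growth, including the antibacterial MIC at each compound concentration.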

[2] = test system: Serratia marcescens (SMA) isolates; test: as above
In short: (§1)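 First, log-phase suspensions are brought to 5.10^5 CFU/mL final in ca-MHB; plates then incubate 16-20 h at 35° C in air. Growth is judged visually, giving the compound MIC alone and the antibacterial MIC at each compound concentration.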

[3] = test system: Enterobacter aerogenes (EAE) isolates; test: as above
In short: as §1

[4] = test system: Enterobacter cloacae (ECL) isolates; test: as above
In short: as §1

[5] = test system: Proteus mirabilis (PMI) isolates; test: microbe, parasite or virus in culture
In short: as §1

## CC1(C)S[C@@H]2[C@H](NC(=O)[C@H](N)c3ccc(O)cc3)C(=O)N2[C@H]1C(=O)O [AMX, Amoxicillin]
[1]
  MIC ATB in combination: >128 µg/mL
[1]; strain CMU 210102, genotype VIM-4
  MIC: >256 µg/mL
[2]
  MIC: >128 µg/mL
  MIC ATB in combination: >128 µg/mL and 128 µg/mL
[2]; SMA UFR30, AF2 @ 8 μg/mL
  MIC ATB in combination: 64 µg/mL
[2]; SMA UFR239, CLA @ 4 μg/mL
  MIC ATB in combination: 64 µg/mL
[2]; strain SMA UFR30, genotype OXA-405
  MIC: >256 µg/mL
[2]; strain SMA UFR134, genotype TEM-1, BES-1
  MIC: >128 µg/mL
[2]; strain SMA UFR135, genotype TEM-1, KPC-2
  MIC: >128 µg/mL
[2]; strain SMA UFR136, genotype TEM-1, SHV-12, KPC-2
  MIC: >128 µg/mL
[2]; strain SMA UFR140, genotype IMP-1
  MIC: >128 µg/mL
[2]; strain SMA UFR141, genotype OXA-48
  MIC: >128 µg/mL
[2]; strain SMA UFR142, genotype OXA-48
  MIC: >128 µg/mL
[2]; strain SMA UFR143, genotype CTX-M-15, OXA-1, OXA-48
  MIC: >128 µg/mL
[2]; strain SMA UFR238, genotype OXA-48
  MIC: >128 µg/mL
[3]; EAE 49469, AF2 @ 8 μg/mL
  MIC ATB in combination: <=0.25 μg/mL
[3]; EAE 49469, CLA @ 4 μg/mL
  MIC ATB in combination: >128 µg/mL
[3]; EAE 200261, AF2 @ 8 μg/mL
  MIC ATB in combination: 16 µg/mL
[3]; EAE 200261, CLA @ 4 μg/mL
  MIC ATB in combination: >128 µg/mL
[3]; EAE UFR199, CLA @ 4 μg/mL
  MIC ATB in combination: >128 µg/mL
[3]; EAE UFR201, CLA @ 4 μg/mL
  MIC ATB in combination: 16 µg/mL
[3]; EAE UFR202, CLA @ 4 μg/mL
  MIC ATB in combination: >128 µg/mL
[3]; EAE UFR207, CLA @ 4 μg/mL
  MIC ATB in combination: 32 µg/mL
[3]; EAE UFR213, CLA @ 4 μg/mL
  MIC ATB in combination: >128 µg/mL
[3]; strain EAE 49469, genotype AmpC
  MIC: >1024 µg/mL
[3]; strain EAE 200261, genotype TEM-x, AmpC
  MIC: >256 µg/mL
[3]; strain EAE UFR199, genotype TEM-1b, SHV-12, KPC-2, OXA-9
  MIC: >128 µg/mL
[3]; strain EAE UFR201, genotype TEM-1, SHV-12, CTX-M-15
  MIC: >128 µg/mL
[3]; strain EAE UFR202, genotype TEM-24
  MIC: >128 µg/mL
[3]; strain EAE UFR213, genotype TEM-24
  MIC: >128 µg/mL
[4]
  MIC ATB in combination: >128 µg/mL
[4]; ECL 190408, AF2 @ 8 μg/mL
  MIC ATB in combination: <=0.25 μg/mL
[4]; ECL 200322, AF2 @ 8 μg/mL
  MIC ATB in combination: <0.25 µg/mL
[4]; ECL 260253, AF2 @ 8 μg/mL
  MIC ATB in combination: <0.25 µg/mL
[4]; ECL 260323, AF2 @ 8 μg/mL
  MIC ATB in combination: <0.25 µg/mL
[4]; ECL 260508, AF2 @ 8 μg/mL
  MIC ATB in combination: <0.25 µg/mL
[4]; ECL P99, CLA @ 4 μg/mL
  MIC ATB in combination: >512 µg/mL
[4]; ECL UFR12, AF2 @ 8 μg/mL
  MIC ATB in combination: <0.25 µg/mL
[4]; ECL UFR38, AF2 @ 8 μg/mL
  MIC ATB in combination: <=0.25 μg/mL
[4]; ECL UFR51, AF2 @ 8 μg/mL
  MIC ATB in combination: <0.25 µg/mL
[4]; ECL UFR70, AF2 @ 8 μg/mL
  MIC ATB in combination: 0.5 µg/mL
[4]; ECL UFR85, AF2 @ 8 μg/mL
  MIC ATB in combination: <0.25 µg/mL
[4]; strain ECL 2185D, genotype OXA-163
  MIC: >256 µg/mL
[4]; strain ECL 190310, genotype AmpC
  MIC: >256 µg/mL
[4]; strain ECL 190408, genotype TEM-1, CTX-M-15, OXA-1
  MIC: >256 µg/mL
[4]; strain ECL 200138, genotype AmpC
  MIC: >256 µg/mL
[4]; strain ECL 200322, genotype TEM-1, CTX-M-15, OXA-1
  MIC: >256 µg/mL
[4]; strain ECL 260033, genotype AmpC
  MIC: >256 µg/mL
[4]; strain ECL 260253, genotype TEM-1, KPC-3
  MIC: >256 µg/mL
[4]; strain ECL 260323, genotype AmpC
  MIC: >256 µg/mL
[4]; strain ECL 260508, genotype TEM-1, CTX-M-15
  MIC: >256 µg/mL
[4]; strain ECL HAN, genotype OXA-35
  MIC: >256 µg/mL
[4]; strain ECL NEM146383, genotype AmpC
  MIC: >256 µg/mL
[4]; strain ECL P99, genotype AmpC
  MIC: >1024 µg/mL
[4]; strain ECL UFR12, genotype CTX-M-9, OXA-48
  MIC: >256 µg/mL
[4]; strain ECL UFR13, genotype TEM-1, SHV-12, CTX-M-9, OXA-48
  MIC: >256 µg/mL
[4]; strain ECL UFR14, genotype TEM-1, SHV-12, CTX-M-15, DHA-1, OXA-1, OXA-48
  MIC: >256 µg/mL
[4]; strain ECL UFR38, genotype CTX-M-15, NDM-1
  MIC: >256 µg/mL
[4]; strain ECL UFR51, genotype SHV-12, IMP-8
  MIC: >256 µg/mL
[4]; strain ECL UFR60, genotype TEM-1, CTX-M-15, KPC-2
  MIC: >256 µg/mL
[4]; strain ECL UFR70, genotype TEM-1, CTX-M-15, CMY-2, OXA-1, Porin loss
  MIC: >256 µg/mL
[4]; strain ECL UFR84, genotype TEM-1, AmpC, OXA-1
  MIC: >256 µg/mL
[4]; strain ECL UFR85, genotype TEM-1, CTX-M-15, AmpC
  MIC: >256 µg/mL
[4]; strain ECL UFR192, genotype TEM-1, NDM-1, antibiotic alone
  MIC: >128 µg/mL
[4]; strain ECL UFR193, genotype TEM-1, CTX-M-15, OXA-1, NDM-1, RmtC, antibiotic alone
  MIC: >128 µg/mL
[4]; strain ECL UFR194, genotype OXA-48
  MIC: >128 µg/mL
[4]; strain ECL UFR195, genotype TEM-1, CTX-M-15, OXA-1, OXA-48
  MIC: >128 µg/mL
[4]; strain ECL UFR196, genotype TEM-1, CTX-M-15, OXA-1, OXA-48
  MIC: >128 µg/mL
[4]; strain ECL UFR197, genotype TEM-1, CTX-M-15, OXA-1, OXA-48
  MIC: >128 µg/mL
[4]; strain ECL UFR198, genotype TEM-1, SHV-12, CTX-M-15, DHA-1, OXA-1, OXA-48
  MIC: >128 µg/mL
[4]; strain ECL UFR200, genotype TEM-1, SHV-12, KPC-2
  MIC: >128 µg/mL
[4]; strain ECL UFR203, genotype TEM-1, SHV-12, VIM-1, antibiotic alone
  MIC: >128 µg/mL
[4]; strain ECL UFR214, genotype TEM-1, SHV-31, CTX-M-15, VIM-4, antibiotic alone
  MIC: >128 µg/mL
[4]; strain ECL UFR252PT, genotype VIM-2, antibiotic alone
  MIC: >128 µg/mL
[5]; PMI UFR82, AF2 @ 8 μg/mL
  MIC ATB in combination: <0.25 µg/mL
[5]; PMI UFR126, CLA @ 4 μg/mL
  MIC ATB in combination: 16 µg/mL
[5]; PMI UFR127, CLA @ 4 μg/mL
  MIC ATB in combination: 32 µg/mL
[5]; PMI UFR129, CLA @ 4 μg/mL
  MIC ATB in combination: 2 µg/mL
[5]; PMI UFR237, CLA @ 4 μg/mL
  MIC ATB in combination: 4 µg/mL
[5]; strain PMI UFR82, genotype CMY-2
  MIC: 256 µg/mL
[5]; strain PMI UFR120, genotype TEM-1, SHV-11, CTX-M-14
  MIC: >128 µg/mL
[5]; strain PMI UFR121, genotype TEM-1, TEM-52
  MIC: >128 µg/mL
[5]; strain PMI UFR122, genotype TEM-1, CTX-M-15
  MIC: >128 µg/mL
[5]; strain PMI UFR123, genotype CTX-M-1
  MIC: >128 µg/mL
[5]; strain PMI UFR124, genotype CTX-M-2
  MIC: >128 µg/mL
[5]; strain PMI UFR125, genotype CTX-M-71
  MIC: >128 µg/mL
[5]; strain PMI UFR126, genotype TEM-2, PER-1
  MIC: >128 µg/mL
[5]; strain PMI UFR127, genotype VEB-1
  MIC: >128 µg/mL
[5]; strain PMI UFR128, genotype VEB-1, OXA-10
  MIC: >128 µg/mL
[5]; strain PMI UFR129, genotype TEM-1, VEB-6
  MIC: >128 µg/mL
[5]; strain PMI UFR130, genotype CMY-2
  MIC: >128 µg/mL
[5]; strain PMI UFR131, genotype CMY-16, OXA-1, OXA-10, NDM-1, ArmA
  MIC: >128 µg/mL
[5]; strain PMI UFR132, genotype VEB-6, DHA-1, NDM-1, AphA6, AacA4
  MIC: >128 µg/mL
[5]; strain PMI UFR133, genotype OXA-23
  MIC: >128 µg/mL
[5]; strain PMI UFR237, genotype VEB-6
  MIC: >128 µg/mL
